Assay results: patent US4724238A, “Method of treating inflammatory diseases with labdan derivatives” (Hoechst Aktiengesellschaft, priority 1985, dated 1988)

How the values were obtained:
rat paw oedema = assay: Acute carrageenin-induced rat paw oedema test (systemic); assay type: in vivo, rat (Charles Foster, male); settings: ip, paw volume at 3 and 6 hours after carrageenin
Description: (a) Acute carrageenin-induced rat paw oedema test Charles Foster male rats (120-150 g) are fasted for 18 hrs. with water ad libitum. The test compound suspended in 0.5% carboxymethyl cellulose (CMC) is given intraperitoneally. The control group receives 0.5% CMC suspension. 0.05 ml of the 0.5% carrageenin suspension is injected subcutaneously into the planter region of the left hind paw. The paw volume is determined before carrageenin injection and at 3 hours and 6 hours after injection using a Maclab volume differential meter. The percentage decrease in paw volume is calculated with the following formula: [formula] The ED50 value is calculated from the dose-response curve. Six animals are used per group.

[1] = test system: Adjuvant-induced arthritis in rats; assay: Adjuvant-induced arthritis test in rats, developing arthritis; assay type: in vivo, rat (Charles Foster, female); settings: i.p., once daily for 21 days
rat ear inflammation = assay: Croton oil-induced local inflammation test in rats (topical); assay type: in vivo, rat (Charles Foster's strain); settings: applied with the irritant, 4 hours
Description: (b) Croton oil-induced local inflammation test in rats A volume of 0.05 ml of croton oil irritant (2.0 ml pyridine, 0.5 ml distilled water+7.4 ml diethyl ether+0.1 ml croton oil) is applied under ether anaesthesia to the anterior and posterior sides of the ear of rats weighing 45 to 60 g (Charles Foster's strain) with the help of a micro glass syringe and a blunt 20 gauge needle/Tonelli G., Thibault L. and Ringer I, Endocrinology 77, 625-634 (1965)/. The right untreated ear serves as control. The drug treated group receives different concentrations of compounds along with the irritant. Four hours later the animals are sacrificed. The ears are removed and punched with an 8 mm diameter cork borer. The punched portions are immediately weighed. The increase in the weight of ear is determined by the difference in the weight between the left and right ear. The topical anti-inflammatory activity of the test compound is expressed as the percent inhibition of the increase in ear weight of the irritant treated ear according to the following formula [formula] The ED50 value is calculated from the dose response curve. Six animals are used per group.

[2] = test system: Acetic acid induced writhing in mice; assay: Analgesic activity, acetic acid writhing test; assay type: in vivo, mouse (male); settings: Mus musculus, sc, 30 minutes before 0.2 ml of 3% acetic acid i.p.; observed 15 minutes
Description: Analgesic activity--Acetic acid writhing test
A test compound suspended in 0.5% carboxy methyl cellulose is given subcutaneously to the male mice (20-25 g). The control group received only the 0.5% CMC. After 30 minutes, 0.2 ml of 3% acetic acid is administered intraperitoneally. The animals are observed for 15 minutes for a characteristic stretching or writhing syndrome which is indicative of pain induced by acetic acid. Six animals are used per group.
In the test group, mice which show less than or equal to 50 percent of the mean control writhing value are considered to be protected. (Blumberg et al. Proc. Soc. Exp. Biol. Med., 118, 763-766, 1965). The percent analgesic activity is calculated as follows: [formula] The ED50 value is calculated from the dose response curve.

[3] = test system: Adjuvant-induced arthritis in rats; assay: Adjuvant-induced arthritis test in rats, established arthritis; assay type: in vivo, rat (Charles Foster, female); settings: i.p., once daily from day 15 to day 21

SMILES | ED50 (rat paw oedema) [mg/kg] | % inhibition of paw volume, developing arthritis ([1]; 3.0 mg/kg) [%] | ED50, croton oil induced rat ear inflammation (rat ear inflammation) [mg/ear] | ED50 [2] [mg/kg] | % inhibition of paw volume, established arthritis ([3]; 3.0 mg/kg) [%] | % inhibition of paw volume, developing arthritis ([1]; 2.5 mg/kg) [%] | % inhibition of paw volume, established arthritis ([3]; 2.4 mg/kg) [%]
C=C[C@@]1(C)CC(=O)[C@@H]2[C@@]3(C)CCCC(C)(C)[C@@H]3[C@H](O)[C@H](OC(C)=O)[C@@]2(C)O1 [1,9-Dideoxyforskolin, 7β-acetoxy-1,9-dideoxy-8,13-epoxy-6β-hydroxy-labd-14-en-11-one] | 2.2 | 62 | 1.6 | 9 | 30 | – | –
C=C[C@@]1(C)CC(=O)[C@]2(O)[C@@]3(C)[C@@H](O)CCC(C)(C)[C@@H]3[C@H](O)[C@H](OC(C)=O)[C@@]2(C)O1 [Forskolin, 7β-acetoxy-8,13-epoxy-1α,6β,9α-trihydroxy-labd-14-en-11one] | 4.8 | – | 1.15 | – | – | 23 | 27
